From PMC12973313 (Chemical Science, 2026)
Converted amounts (≈) assume the structure as drawn. “And” between values parts separate entries of the source, which are not always exact repeats. Equal values may be shown once. Read-outs that look alike come from different tables or passages of the source.

How the values were obtained:
S. aureus USA300 = experiment: MIC assay; assay type: cell-based; settings: Staphylococcus aureus
Procedure: (§1) Next generation SSAs 3, 5, 7, and 9 were specifically designed to increase the activity of SSAs against both drug susceptible and resistant S. aureus and ovarian cancer cells. […] These strains include: (i) USA300, a common clinically relevant, methicillin resistant strain;[47] […]
(§2) Section S3: Biological methods […]
(§3) Preparation of bacterial plates : Sterile TSB agar plates were streaked using the desired […]
(§4) Preparation of inoculum: An initial culture was made up by inoculating TSB (5 mL) with 3 single colonies of the desired bacteria under sterile conditions and incubated at 37 °C overnight. The optical density at 600 nm (OD 600) was adjusted using sterile distilled H 2O (dH2O) to equal ~1 x 10^6 bacteria/mL.
(§5) Preparation of 96 -well microplate : A solution of each compound in H2O/5 % EtOH was made […]
(§6) The compound solution (200 […]
(§7) µL) was added to and diluted 50:50 down the plate. The bacterial suspension (100 µL) was dispensed into each well under sterile conditions. […]

[1] = tested on: Galleria mellonella larvae; experiment: G. mellonella toxicity assay; assay type: in vivo; settings: out of 10, 10 µL of 5 mM in H2O/EtOH 19:1, 37 °C
Procedure: Finally, we gauged the toxicity of SSAs 1, 3, 5, 7, and 9 as either homogenous solutions or heterogenous (1 : 1) enantiomeric mixtures towards multicellular organisms which have an intrinsic immune system.[66] Here, Galleria mellonella larvae were injected with 10 µL of SSA (5 mM) in a distilled H2O/EtOH 19 : 1 solution and then incubated at 37 °C for a maximum of five days and the number of surviving larvae recorded each day. […]. […]
G. mellonella treatment assay: G. mellonella larvae were purchased from Livefood UK Ltd.
(Rooks Bridge, UK) and maintained on wood chips in the dark at 15 °C until use. Galleria
larvae were injected with 10 µL of compound in H2O/5 % EtOH, incubated at 37 °C for 5 days
and the deaths counted. Groups of 10 Galleria were injected per compound. […]

S. aureus 1199B = experiment: microbe, parasite or virus in culture; assay type: cell-based, Staphylococcus aureus; settings: for MIC: Staphylococcus aureus, 1199B; for MIC (mM) S. aureus 1199B: lowest concentration with no visible growth; for MIC 1199B: total molecular concentration
Procedure: as §1, §2, §3, §4, §5, §6, §7

S. aureus ATCC 9144 = experiment: MIC assay; assay type: cell-based, Staphylococcus aureus
Procedure: as §1, §2, §3, §4, §5, §6, §7

S. aureus NCTC 13616 = experiment: MIC assay; assay type: cell-based, Staphylococcus aureus
Procedure: as §1, §2, §3, §4, §5, §6, §7

[2] = Dynamic light scattering, H2O 5% EtOH; assay type: physicochemical; settings: 5.56 mM, 298 K, after annealing
Excerpt: The size and stability of those self-associated structures present were confirmed through a combination of dynamic light scattering (DLS) and zeta potential measurements respectively (Table 2). […] Therefore, the presence of the alkyl/aromatic R-groups within the amino acid appended SSA are confirmed to increase higher order self-associated aggregate stability.
Table S9 - The peak maxima and polydispersity indices obtained for 1, 3, 5, 7, 9, and 1:1 enantiomeric mixtures of 3 + 5 and 7 + 9 obtained at 5.56 mM in H2O/5 % EtOH. An annealing process was applied in which the samples were heated to approximately 313 K before being cooled down to a measurement temperature of 298 K. The errors given are the standard error of the average.
Compound Repeat Peak maxima (nm) Polydispersity index

[3] = 1H NMR dilution study, self-association constants (Bindfit v0.5); assay type: physicochemical; settings: 298 K; for Kdim, CoEK model / Ke, CoEK model / Ke, EK model / ρ, CoEK model: DMSO-d6/0.5 % H2O; for Kdim / Kdim (M^-1): equal K/dimerization model, DMSO-d6 0.5% H2O
Procedure: This enables the quantification of parameters such as SSA anion dimerization constant which we have shown to correlate with critical aggregation concentration (CAC) values obtained from aqueous solutions of that same SSA.[30]
Figure S40 – Graph illustrating the 1H NMR down-field change in chemical shift of urea NH
resonances with increasing concentration of 9 in DMSO-d6/0.5 % H2O (298 K).
Self-association constant calculation: values were calculated from data gathered from both
NH’s and fitted to the Cooperative Equal K (CoEK) and Equal K/ dimerization binding models.
Equal K/Dimerization model:
Table S8- The self-association constants (Ke and Kdim) calculated for 3, 5, 7 and 9 in DMSO-d6/
0.5 % H2O solution at 298 K. Constants were obtained for the EK and CoEK models by fitting
1H NMR self-association data to Bindfit v0.5.
EK model (M-1) CoEK model (M-1)
Compound Ke Error Kdim Error Ke Error Kdim Error ⍴ Error
(± %) (± %) (± %) (± %) (± %)
(1 picture or pasted object on this page, not shown here)

[4] = Quantitative 1H NMR, DMSO-d6 1% DCM (self-association); assay type: physicochemical; settings: 112 mM, 298 K, proportion NMR silent
Excerpt: Initially, quantitative (Q) ^1H NMR spectroscopy experiments were undertaken in DMSO-d6 1% DCM, using the DCM as an internal standard to identify the presence of either low or high order SSA self-associated aggregates. Here, low-order SSA self-associated aggregates are defined as those directly observable using traditional solution state ^1H NMR spectroscopy such as the formation of hydrogen bonded anionic dimers. To determine the presence of low or high-order SSA aggregates, signals corresponding to the anionic or cationic component of the SSA are integrated against those of the internal DCM standard.

[5] = 1H NMR DOSY, DMSO-d6 0.5% H2O; assay type: physicochemical; settings: 298 K; for dH (nm), hydrodynamic diameter, anionic component: 1H NMR DOSY, DMSO-d6 0.5% H2O, 112 mM; for Hydrodynamic diameter (nm) Cationic component: DMSO-d6/0.5 % H2O
[6] = Quantitative 1H NMR, D2O 5% EtOH (self-association); assay type: physicochemical; settings: 5.56 mM, 298 K, proportion NMR silent
Excerpt: However, when supplied as a 1 : 1 enantiomeric mixture, although the trend in increased incorporation of 7 + 9 over 3 + 5 into the higher order aggregate structure was retained from previous observations in polar organic solvents, the total proportion of SSA incorporated into these higher order structures was approximately 20% lower (from ≈ 50% to ≈ 30%) for the 1 : 1 enantiomeric mixture of 3 + 5 over the homogenous solution of those same SSAs.

[7] = USA300, 15 h, total molecular concentration, after 900 min, read-out: MIC USA300
[8] = USA300, lowest concentration with no visible growth, read-out: MIC (mM) S. aureus USA 300
[9] = 15 h, read-out: MIC 1199B, total molecular concentration, after 900 min
[10] = read-out: MIC (mM) S. aureus 1199B, lowest concentration with no visible growth
[11] = Staphylococcus aureus, ATCC9144, 15 h, total molecular concentration, after 900 min, read-out: MIC ATCC 9144
[12] = Staphylococcus aureus, ATCC9144, lowest concentration with no visible growth, read-out: MIC (mM) S. aureus 9144
[13] = Staphylococcus aureus, NCTC13616, 15 h, total molecular concentration, after 900 min, read-out: MIC NCTC 13616
[14] = Staphylococcus aureus, NCTC13616, lowest concentration with no visible growth, read-out: MIC (mM) S. aureus 13616

O=C(O)CNC(=O)Nc1ccc(C(F)(F)F)cc1 [SSA 1]
MIC (S. aureus USA300; [7]): > 2.78 mM | MIC (S. aureus USA300; [8]): > 2.78 mM | Galleria moth larvae survived Day 1 [1]: 10 | Galleria moth larvae survived Day 2 [1]: 9 | Galleria moth larvae survived Day 3 [1]: 8 | Galleria moth larvae survived Day 4 [1]: 6 | Galleria moth larvae survived Day 5 [1]: 6 | MIC (S. aureus 1199B; [9]): > 2.78 mM | MIC (S. aureus 1199B; [10]): > 2.78 mM | MIC (S. aureus ATCC 9144; [11]): 1.39 mM (≈ 364 µg/mL) | MIC (S. aureus ATCC 9144; [12]): 1.39 mM (≈ 364 µg/mL) | MIC (S. aureus NCTC 13616; [13]): > 2.78 mM | MIC (S. aureus NCTC 13616; [14]): > 2.78 mM

CC(C)CC(NC(=O)Nc1ccc(C(F)(F)F)cc1)C(=O)O (centres unmarked) [SSA 3]
dH (nm), DLS intensity distribution peak maxima ([2]; listed as 3): 265.65 (± 19.29) nm and 266 nm | MIC (S. aureus USA300; [7]): > 2.78 mM | Kdim, CoEK model ([3]; listed as 3): 280.45 M⁻¹ | Ke, CoEK model ([3]; listed as 3): 560.90 M⁻¹ | Ke, EK model ([3]; listed as 3): 242.72 M⁻¹ | ρ, CoEK model ([3]; listed as 3): 2.29 | Kdim ([3]; listed as 3): 121.36 M⁻¹ | Kdim (M^-1) ([3]; listed as 3): 121 (±1.9%) M^−1 | Galleria moth larvae survived Day 2 [1]: 9 | Galleria moth larvae survived Day 1 ([1]; listed as 3): 9 | Galleria moth larvae survived Day 3 ([1]; listed as 3): 9 | Galleria moth larvae survived Day 4 ([1]; listed as 3): 6 | Galleria moth larvae survived Day 5 ([1]; listed as 3): 5 | MIC (mM) S. aureus 1199B (S. aureus 1199B; listed as 3): 0.087 mM (≈ 27.7 µg/mL) | MIC 1199B (S. aureus 1199B; after 900 min, listed as 3): 87 µM (≈ 27.7 µg/mL) | Q NMR (%) SSA anion [4]: 0% | Q NMR (%) SSA cation [4]: 0% | dH (nm), hydrodynamic diameter, anionic component ([5]; listed as 3): 1.66 nm and 1.7 nm | Hydrodynamic diameter (nm) Cationic component ([5]; listed as 3): 1.26 nm | Q NMR (%) SSA anion ([6]; listed as 3): 50% | Q NMR (%) SSA cation ([6]; listed as 3): 44% | MIC (S. aureus ATCC 9144; [11]): 0.087 mM (≈ 27.7 µg/mL) | MIC (S. aureus ATCC 9144; [12]): 0.087 mM (≈ 27.7 µg/mL) | MIC (S. aureus NCTC 13616; [13]): 0.087 mM (≈ 27.7 µg/mL) | MIC (S. aureus NCTC 13616; [14]): 0.087 mM (≈ 27.7 µg/mL)

CC(C)CC(NC(=O)Nc1ccc(C(F)(F)F)cc1)C(=O)O (centres unmarked) [SSA 5]
dH (nm), DLS intensity distribution peak maxima ([2]; listed as 5): 174.05 (± 13.00) nm and 174 nm | Kdim, CoEK model ([3]; listed as 5): 175.90 M⁻¹ | Ke, CoEK model ([3]; listed as 5): 351.80 M⁻¹ | Ke, EK model ([3]; listed as 5): 180.55 M⁻¹ | ρ, CoEK model ([3]; listed as 5): 3.41 | Kdim ([3]; listed as 5): 90.27 M⁻¹ | Kdim (M^-1) ([3]; listed as 5): 90 (±3.2%) M^−1 | Galleria moth larvae survived Day 2 [1]: 9 | Galleria moth larvae survived Day 1 ([1]; listed as 5): 10 | Galleria moth larvae survived Day 3 ([1]; listed as 5): 8 | Galleria moth larvae survived Day 4 ([1]; listed as 5): 8 | Galleria moth larvae survived Day 5 ([1]; listed as 5): 8 | MIC (mM) S. aureus 1199B (S. aureus 1199B; listed as 5): 2.780 mM (≈ 885 µg/mL) | MIC 1199B (S. aureus 1199B; after 900 min, listed as 5): 2780 µM (≈ 885 µg/mL) | dH (nm), hydrodynamic diameter, anionic component ([5]; listed as 5): 1.70 nm and 1.7 nm | Hydrodynamic diameter (nm) Cationic component ([5]; listed as 5): 1.28 nm | Q NMR (%) SSA anion ([6]; listed as 5): 52% | Q NMR (%) SSA cation ([6]; listed as 5): 48% | MIC (mM) S. aureus 9144 (S. aureus ATCC 9144; lowest concentration with no visible growth, listed as 5): 0.174 mM (≈ 55.4 µg/mL) | MIC (S. aureus ATCC 9144; total molecular concentration, after 900 min, listed as 5, read-out: MIC ATCC 9144): 0.174 mM (≈ 55.4 µg/mL) | MIC (mM) S. aureus 13616 (S. aureus NCTC 13616; lowest concentration with no visible growth): 0.087 mM (≈ 27.7 µg/mL) | MIC (S. aureus NCTC 13616; total molecular concentration, after 900 min, read-out: MIC NCTC 13616): 0.087 mM (≈ 27.7 µg/mL)

O=C(Nc1ccc(C(F)(F)F)cc1)N[C@@H](Cc1ccccc1)C(=O)O [SSA 7]
dH (nm), DLS intensity distribution peak maxima [2]: 166.62 (± 19.14) nm and 167 nm | MIC (S. aureus USA300; [7]): 0.087 mM (≈ 30.7 µg/mL) | MIC (S. aureus USA300; [8]): 0.087 mM (≈ 30.7 µg/mL) | Kdim, CoEK model [3]: 10.58 M⁻¹ | Ke, CoEK model [3]: 21.17 M⁻¹ | Ke, EK model [3]: 55.52 M⁻¹ | ρ, CoEK model [3]: 2.86 | Kdim [3]: 27.76 M⁻¹ | Kdim (M^-1) [3]: 28 (±2.1%) M^−1 | Galleria moth larvae survived Day 1 [1]: 10 | Galleria moth larvae survived Day 2 [1]: 4 | Galleria moth larvae survived Day 3 [1]: 4 | Galleria moth larvae survived Day 4 [1]: 4 | Galleria moth larvae survived Day 5 [1]: 4 | MIC (S. aureus 1199B; [9]): 0.174 mM (≈ 61.3 µg/mL) | MIC (S. aureus 1199B; [10]): 0.174 mM (≈ 61.3 µg/mL) | Q NMR (%) SSA anion [4]: 0% | Q NMR (%) SSA cation [4]: 0% | dH (nm), hydrodynamic diameter, anionic component [5]: 1.70 nm and 1.7 nm | Hydrodynamic diameter (nm) Cationic component [5]: 1.27 nm | Q NMR (%) SSA anion [6]: 51% | Q NMR (%) SSA cation [6]: 48% | MIC (S. aureus ATCC 9144; [11]): 0.087 mM (≈ 30.7 µg/mL) | MIC (S. aureus ATCC 9144; [12]): 0.087 mM (≈ 30.7 µg/mL) | MIC (S. aureus NCTC 13616; [13]): 0.087 mM (≈ 30.7 µg/mL) | MIC (S. aureus NCTC 13616; [14]): 0.087 mM (≈ 30.7 µg/mL)
